Our source for the melting point values is a melting point compilation (Tetko et al.).

Structures are written as SMILES.

What is called melting point is the temperature of the solid-liquid transition. `Cn1c(=O)n(-c2cccc(Cl)c2)c(=O)c2c3c(sc21)CCCC3`: the melting point was 240 to 241 °C.

`Cc1onc(-c2c(Cl)cccc2Cl)c1C=O` had a melting point of 100 to 103 °C.

In turn, `O=C(O)C(=Cc1ccc(Cl)cc1)C(=Cc1ccc(Cl)cc1)C(=O)O` came in with a melting point of 232 °C.

`COCCN1CCCNCC1` displayed a melting point of 67 °C.

Molecule `O=C1C(=O)c2ccccc2C(Cl)=C1Cl` registered a melting point of 184 °C.

The molecule `Brc1ccc(OC2CCOCC2)nc1` returned a melting point of 96 to 98 °C.

Regarding `C[C@]12CCC(=O)C(Br)[C@H]1CC[C@@H]1[C@@H]2CC[C@]2(C)C(O)CC[C@@H]12` (some centres not stated), the melting point came out at 143 °C.

`COC(=O)c1scc(C#N)c1-n1cccc1` registered a melting point of 87 to 90 °C.

`O=C(Cl)c1cccnc1Oc1ccccc1` yielded a melting point of 90 to 91 °C.

`CC(=O)n1c(C)cc2cc3cc(C)[nH]c3cc21` returned a melting point of 279 °C.

`CC(=O)C(=Cc1ccccc1)C(=O)OC1CC(C)CCC1C(C)C` (configuration not stated) came in with a melting point of 133 °C.

`Cc1cc(NS(=O)(=O)c2ccc(N)cc2)n(-c2ccccc2)n1` had a melting point of 195 °C.

`O=Cc1ccc(C(F)(F)F)nc1` displayed a melting point of 53 to 55 °C.

In the case of `c1nnc(SCCSc2nnc[nH]2)[nH]1`, the melting point fell in the range of 197 to 200 °C.

With `CC(C)(C)OOC(C)(C)CCC(C)(C)OOC(C)(C)C`, the melting point is 8 °C.

`Cn1c(=O)c2c(nc(Cl)n2CC(=O)O)n(C)c1=O` registered a melting point of 198 to 199 °C.

For the molecule `CC1OC(Oc2c(-c3ccc(O)c(O)c3)oc3cc(O)cc(O)c3c2=O)C(O)C(O)C1O` (configuration not stated), the melting point was 170 °C.

In the case of `FC(F)(F)C(Cl)C(F)(F)F`, the melting point is -120 °C.

As to `CCOc1c(NN(C)C)c(=O)c1=O`, the melting point fell in the range of 130 to 132 °C.

For the molecule `CN=C=O`, the melting point was -45 °C.

`CCN(CC)C(=O)CC(C)=O` registered a melting point of -73 °C.

For the molecule `Oc1ccc(C2CCCCC2)cc1`, the melting point stood at 133 °C.

With `COC(=O)c1cc2occc2[nH]1`, the melting point was in the range of 139 to 140 °C.

As for `CC1CCCCC1NC(=O)Nc1ccccc1` (configuration not stated), the melting point worked out at 136 °C.

`CCNC(=O)C1CC(C)CCC1C(C)C` (configuration not stated): the melting point amounted to 88 °C.

As for `CCOC(=O)C(=CN)C(=O)OCC`, the melting point turned out to be 63 °C.

`O=C(O)Cc1c[nH]c2ccc(O)cc12` yielded a melting point of 162 to 165 °C.

Take `O=C(O)c1cccnc1Oc1ccccc1`: the melting point worked out at 181 °C.

`Cn1c(/C(C#N)=C/c2cccc(O)c2)nc2ccccc21` had a melting point of 240 °C.

Consider `CC12CCC(C(Br)=C(Br)C1=O)C2(C)C` (configuration not stated), for which the melting point was found to be 103 °C.

`CC(Cl)OC(=O)Cl` (configuration not stated) showed a melting point of -65 °C.

`O=c1oc2ccccc2cc1O`: the melting point came to 154 °C.

Consider `O=C(NNC(=O)c1ccc(Cl)cc1)c1ccc(Cl)cc1`, for which the melting point was determined as 260 °C.

`ON=C(c1ccccc1)c1ccc(Cl)cc1` yielded a melting point of 133 °C.

Consider `Clc1c(Cl)c(Cl)c2c(c1Cl)OC1Cc3ccccc3C1O2` (configuration not stated), for which the melting point stood at 159 °C.

Molecule `C[Si]1(C)O[Si](C)(C)O[Si](C)(C)O[Si](C)(C)O[Si](C)(C)O[Si](C)(C)O1` registered a melting point of -3 °C.

`CC1(C)OC2CC3C4CCC5=CC(=O)C=CC5(C)C4C(O)CC3(C)C2(C(=O)CO)O1` (configuration not stated) came in with a melting point of 274 °C.

Consider `Cc1nc(-c2cccc(C(=O)Cl)c2)no1`, for which the melting point was found to be 93 °C.

Take `O=C1OC(=O)c2cc(F)ccc21`: the melting point was in the range of 75 to 78 °C.

For `COC(=O)c1cc(C)[nH]c1C`, the melting point turned out to be 120 °C.

As to `COc1ccccc1/C=C/C(=O)O`, the melting point was 185 °C.

As to `O=C(O)c1cccc(S(=O)(=O)Oc2ccc3ccccc3c2)c1`, the melting point turned out to be 155 °C.

In the case of `Nc1cc(F)c(Cl)cc1N`, the melting point lay in the range of 110 to 112 °C.

`CCCOC1CCC2C3CC=C4CC5(CCC4(C)C3CCC12C)OCCO5` (configuration not stated) had a melting point of 213 to 214 °C.

In the case of `CCOP(=S)(OCC)SCSP(=S)(OCC)OCC`, the melting point was -12 °C.

As for `CC(=O)C(C(C)=O)=C1SCCCS1`, the melting point came to 91 °C.

In the case of `Nc1ncc(C(F)(F)F)cc1Br`, the melting point was 100 °C.

Regarding `CC(O)(C(=O)O)c1ccccc1` (configuration not stated), the melting point was 116 °C.

In turn, `CC(=O)Oc1cc(OC(C)=O)cc(C(C)=O)c1` gave a melting point of 91 to 95 °C.

For the molecule `O=C(O)C1CC1(F)F` (configuration not stated), the melting point came to 58 °C.

`CCOC(=O)C(C)OC(=O)c1cc(Oc2ccc(C(F)(F)F)cc2Cl)ccc1[N+](=O)[O-]` (configuration not stated) displayed a melting point of 45 °C.

In the case of `Cn1ccnc1I`, the melting point lay in the range of 87 to 89 °C.

As to `CCCCCC=CCC=CCCCCCCCC(=O)OC`, the melting point was -35 °C.

Molecule `N#Cc1ccnc(Cl)c1` yielded a melting point of 71 to 72 °C.

Molecule `Cc1c(Cl)cccc1C#N` returned a melting point of 21.5 °C.

`CCC1COC(=O)O1` (configuration not stated) had a melting point of -45 °C.

Take `CC(C)(C)[N+](=O)[O-]`: the melting point turned out to be 26.2 °C.

Take `Brc1ccc2c(c1)CCO2`: the melting point fell in the range of 49 to 50 °C.

`O=C(Br)c1ccccc1` gave a melting point of -24 °C.

Molecule `Cc1cccnc1C` came in with a melting point of -17 °C.

In turn, `CNCC(O)c1ccccc1` (racemic) gave a melting point of 74 to 76 °C.

Regarding `COc1ccc(C(=O)/C=C/c2cccc(OC)c2OC)c(O)c1`, the melting point worked out at 99.5 °C.

`c1ccc2c(c1)cc1ccc3c4ccccc4cc4ccc2c1c43` gave a melting point of 317 °C.

The molecule `S=C=Nc1ccc(N=Nc2ccccc2)cc1` had a melting point of 97 °C.

`NCCCNC1CCCCC1` gave a melting point of -18 °C.

`O=C(Cl)c1cnc2ccccc2n1` registered a melting point of 100 °C.

Consider `O=C(O)c1ccc(C(F)(F)F)nc1`, for which the melting point was 192 °C.

The molecule `O=P(c1ccccc1)(c1ccccc1)C1C=C(c2ccc(Br)cc2)OC(c2ccc(Br)cc2)=C1` had a melting point of 193 to 194 °C.

Take `COc1cc(NS(=O)(=O)c2ccc(N)cc2)nc(C)n1`: the melting point came out at 146 °C.

In turn, `Cc1onc(-c2ccccc2)c1I` came in with a melting point of 104 to 105 °C.

In the case of `O=C(NCC(c1ccccc1)c1ccccc1)c1ccccc1`, the melting point is 123 °C.

`COc1cc2ccc(=O)oc2cc1OC` yielded a melting point of 146 °C.

`O=C(O)C1COc2ccccc2O1` (configuration not stated) displayed a melting point of 125 to 128 °C.

`C[Si](C)(C)C1c2ccccc2-c2ccccc21` had a melting point of 96.5 °C.

For `Cn1cnc2c1c(=O)[nH]c(=O)n2C`, the melting point amounted to 357 °C.

`CC(=O)CCc1cc2c(c([N+](=O)[O-])c1)CCC(C)N2C(=O)c1ccc([N+](=O)[O-])cc1` (configuration not stated) returned a melting point of 115 °C.

`COP(=O)(OC)SCn1c(=O)oc2cc(Cl)cnc21` came in with a melting point of 89 °C.

`C(=C1c2ccccc2C2C1OC1/C(=C\c3ccccc3)c3ccccc3C12)c1ccccc1` (configuration not stated) had a melting point of 214 to 215 °C.

`CCOC(=O)/C(C#N)=C/c1ccc(O)cc1` registered a melting point of 171 to 172 °C.

For the molecule `C=C(C)C(=O)OCC`, the melting point is -60 °C.

The molecule `C1=CC2=CC=Cc3c(c(c4cccc5cccc3c54)=C1)C2` showed a melting point of 171 °C.

For the molecule `S=C(Oc1ccccn1)Oc1ccccn1`, the melting point lay within 96 to 99 °C.

For the molecule `Nc1ncnc2c1ncn2C1OC2COP(=O)(O)OC2C1O` (configuration not stated), the melting point was 260 °C.

The molecule `NC(=NO)c1cccc(C(F)(F)F)c1` had a melting point of 82 to 88 °C.

In turn, `O=NN(CCCl)C(=O)NCCCl` showed a melting point of 31 °C.

Molecule `O=C1c2c(Br)c(Br)c(Br)c(Br)c2C(=O)N1CCN1C(=O)c2c(Br)c(Br)c(Br)c(Br)c2C1=O` had a melting point of 445 °C.

The molecule `CNC(=O)Sc1ccc(OS(C)(=O)=O)cc1` displayed a melting point of 138 °C.

Turning to `O=C(O)CCC(=O)CCC(=O)O`, the melting point was in the range of 142 to 144 °C.

In turn, `c1ccc(C2(N3CCCCC3)CCCCC2)cc1` displayed a melting point of 46.5 °C.

`COc1nc(C)nc(N)n1` displayed a melting point of 260 °C.

Turning to `O=C(O)C1C2CCC(C2)C1C(=O)c1ccccc1` (configuration not stated), the melting point is 180 to 183 °C.

For the molecule `COC(=O)CC(C)CCC1C(C)(O)CCC2C(C)(C)CCCC21C` (configuration not stated), the melting point lay in the range of 68.3 to 71.3 °C.

Regarding `N#CC1=C(N)OC2=C(CCCC2)C1c1ccccc1` (configuration not stated), the melting point turned out to be 261 °C.

`CC(C)CC1=CC(=Cc2ccc(-c3ccccc3)o2)C(=O)O1` displayed a melting point of 75 to 76 °C.

The molecule `O=C1CNC(=S)N1` came in with a melting point of 230 °C.

In turn, `COc1cc2ccc(N(C)S(=O)(=O)c3ccc(C)cc3)cc2[nH]1` showed a melting point of 203 °C.

Molecule `COC(=O)c1ccc([N+](=O)[O-])c(O)c1` yielded a melting point of 91 °C.

For `O=C(CSc1nc(=O)[nH]c2c1CCCC2)c1ccccc1`, the melting point fell in the range of 250 to 255 °C.

On to `O=C(Nc1ccc([N+](=O)[O-])cc1)Nc1ccc([N+](=O)[O-])cc1`, for which the melting point came out at 312 °C.

Regarding `O=[N+]([O-])c1c(Cl)ccc2nsnc12`, the melting point was 149 to 152 °C.

Regarding `COCCOCCOCCO`, the melting point is -44 °C.

Consider `COc1ccc(C)cc1S(=O)(=O)Cl`, for which the melting point lay in the range of 82 to 84 °C.

In turn, `Sc1nnc(-c2ccc(Cl)cc2Cl)n1Cc1ccco1` registered a melting point of 158 to 160 °C.

As for `Cc1cccc(N/N=C(/C#N)c2nc(-c3ccc(Cl)cc3)cs2)c1`, the melting point was found to be 157 °C.

`Cc1nn(C)c(NC(=O)CCl)c1Br` displayed a melting point of 151 to 153 °C.

Molecule `CN(C)c1ccccc1[N+](=O)[O-]` came in with a melting point of -20 °C.

Turning to `O=C1NCCSC1c1ccccc1` (configuration not stated), the melting point was 158 to 162 °C.

In turn, `Cc1n[nH]c(C)c1CCBr` showed a melting point of 118 to 120 °C.

`CC(=O)c1c2ccccc2cc2ccccc12`: the melting point is 74 °C.

`O=Cc1cc(Cl)cc(Cl)c1O` registered a melting point of 96 °C.

In turn, `Cc1c(CCO)c(=O)n2c([nH]c3ccccc32)c1C#N` gave a melting point of 250 °C.

For `CC(=O)N1CCc2cc(Br)ccc21`, the melting point lay in the range of 124 to 127 °C.
